Assay results taken from patent US10815264B2, “Nucleotides for the treatment of cancer” (IDENIX PHARMACEUTICALS LLC, priority 2015, dated 2020).
pIC50: −log10 of the molar value. Read-outs that look alike come from different tables or passages of the source.

What was measured:
Assay in all cases: In vitro inhibition, CellTiter-Glo (CTG) assay, 72 hr exposure
Type in all cases: cell-based
[1] = system: MiaPACA-2
Procedure: (§1) Cells were grown in RPMI-1640 supplemented with L-Glutamine and 10% FBS of the following cell lines:
(§2) CCRF-CEM; CCRF-CEM-cytarabine resistant; HL-60; K562; CFPAC-1; MiaPACA-2; BxPC-3; PANC-1; HepG2; MDA-MB-231; HCT-116; A498; and NCI-H69
(§3) 18, 96 well plates of each cell line were seeded with the optimized number of cells per well in a total volume of 50 μL per well. The plates were left overnight. Plate wells were seeded with 100 μL media for media control. The following day, cells were exposed to test compounds as described below. At the same time as drug exposure, a CTG assay was conducted on the 18th plate for the 0 hr count.
(§4) The compounds were added to cells and medium already on the plate to give desired final concentrations. 50 μL media were added to cell control wells, and 50 μL of mix added to vehicle control wells. 10 μM Doxorubicin was added to appropriate wells. Cells exposed to test compound were incubated at 37° C. for 72 hr followed by a CTG assay.
(§5) At the end of the 72 hr exposure period, plates were removed for a CellTiter-Glo (CTG) assay from a 37° C., 5% CO2 incubator and placed on the bench at room temperature for 30 mins. 100 μL of CellTiter-Glo reagent was added and mixed for 2 mins, followed by a further 10 min incubation at room temperature. Luminescence was recorded using Synergy 4.0.

[2] = system: HL-60
Procedure: as §1, §2, §3, §4, §5

[3] = system: NCI-H69
Procedure: as §1, §2, §3, §4, §5

[4] = system: A498
Procedure: as §1, §2, §3, §4, §5

[5] = system: HCT-116
Procedure: as §1, §2, §3, §4, §5

[6] = system: CCRF-CEM
Procedure: as §1, §2, §3, §4, §5

[7] = system: K562; conditions: K562, 72 hr
Procedure: as §1, §2, §3, §4, §5

[8] = system: HepG2
Procedure: as §1, §2, §3, §4, §5

[9] = system: PANC-1; conditions: PANC-1, 72 hr
Procedure: as §1, §2, §3, §4, §5

[10] = system: CFPAC-1
Procedure: as §1, §2, §3, §4, §5

[11] = system: CCRF-CEM-cytarabine resistant
Procedure: as §1, §2, §3, §4, §5

[12] = system: MDA-MB-231; conditions: MDA-MB-231, 72 hr
Procedure: as §1, §2, §3, §4, §5

[13] = system: BxPC-3
Procedure: as §1, §2, §3, §4, §5

[14] = Homo sapiens, MIA PaCa-2, MiaPACA-2, 72 hr

| pIC50 [1, 14] | pIC50 ([2]; Homo sapiens, HL-60, 72 h) | pIC50 ([3]; Homo sapiens, NCI-H69, 72 h) | pIC50 ([5]; Homo sapiens, HCT-116, 72 h) | pIC50 ([6]; Homo sapiens, 72 h) | pIC50 ([7]; Homo sapiens) | pIC50 ([8]; Homo sapiens, HepG2, 72 h) | pIC50 ([9]; Homo sapiens) | pIC50 [11] | pIC50 ([12]; Homo sapiens) | pIC50 ([13]; Homo sapiens, BXPC-3, 72 h) | pIC50 ([13]; BxPC-3, 72 hr) | pIC50 ([3]; NCI-H69, 72 hr) | SMILES | pIC50 ([4]; Homo sapiens, A498, 72 h) | pIC50 ([10]; Homo sapiens, CFPAC-1, 72 h) | pIC50 ([1]; MiaPACA-2, 72 hr) | pIC50 ([5]; HCT-116, 72 hr) | pIC50 ([8]; HepG2, 72 hr) | pIC50 ([10]; CFPAC-1, 72 hr) | pIC50 ([4]; A498, 72 hr) | other results |
| --- | --- | --- | --- | --- | --- | --- | --- | --- | --- | --- | --- | --- | --- | --- | --- | --- | --- | --- | --- | --- | --- |
| 4.00 to 5.00 | 4.00 to 5.00 | 4.00 to 5.00 | 4.00 to 5.00 | 4.00 to 5.00 | 4.00 to 5.00 | 4.00 to 5.00 | 4.00 to 5.00 | 4.00 to 5.00 | 4.00 to 5.00 | 4.00 to 5.00 |  |  | Cn1c(COP(=O)(NCc2ccccc2)O[C@H]2[C@H](O)[C@H](n3ccc(N)nc3=O)S[C@@H]2CO)cnc1[N+](=O)[O-] (mixture of isomers) [Compound 106b (mixture of diastereoisomers), 4-amino-1-[(2R,3S,4S,5R)-4-[(benzylamino)-[(3-methyl-2-nitro-imidazol-4-yl)methoxy]phosphoryl]oxy-3-hydroxy-5-(hydroxymethyl)tetrahydrothiophen-2-yl]pyrimidin-2-one] | 4.00 to 5.00 | 4.00 to 5.00 |  |  |  |  |  |  |
| 4.00 to 5.00 | 5.00 to 6.00 | 4.00 to 5.00 | 4.00 to 5.00 | > 6.00 | 4.00 to 5.00 |  | 4.00 to 5.00 | 4.00 to 5.00 | 4.00 to 5.00 | 4.00 to 5.00 |  |  | CCOC(=O)COP(=O)(N[C@@H](CC(C)C)C(=O)OCC)OC[C@H]1S[C@@H](n2ccc(N)nc2=O)[C@@H](O)[C@@H]1O (single isomer, unassigned) [Compound 102b (diastereoisomer 1)] | 4.00 to 5.00 | 4.00 to 5.00 |  |  | 5.00 to 6.00 |  |  |  |
|  |  |  |  |  |  |  |  | 4.00 to 5.00 |  |  | 4.00 to 5.00 | 4.00 to 5.00 | CCOC(=O)COP(=O)(N[C@@H](CC(C)C)C(=O)OCC)OC[C@H]1S[C@@H](n2ccc(N)nc2=O)[C@@H](O)[C@@H]1O (single isomer, unassigned) [Compound 102b (diastereoisomer 2)] |  |  | 4.00 to 5.00 | 4.00 to 5.00 | 4.00 to 5.00 | 4.00 to 5.00 | 4.00 to 5.00 | pIC50 ([2]; HL-60, 72 hr): 5.00 to 6.00; pIC50 [6]: > 6.00; pIC50 [7]: 4.00 to 5.00; pIC50 [9]: 4.00 to 5.00; pIC50 [12]: 4.00 to 5.00 |
| 5.00 to 6.00 | > 6.00 |  |  | > 6.00 | 5.00 to 6.00 | 5.00 to 6.00 | 4.00 to 5.00 | 5.00 to 6.00 | 4.00 to 5.00 |  | 4.00 to 5.00 | 4.00 to 5.00 | Nc1ccn([C@@H]2S[C@H](COP(=O)(NCc3ccccc3)OCc3ccc([N+](=O)[O-])o3)[C@@H](O)[C@@H]2O)c(=O)n1 (single isomer, unassigned) [Compound 103 (diastereoisomer 1)] |  |  |  | 4.00 to 5.00 |  | 4.00 to 5.00 | 4.00 to 5.00 |  |

| SMILES | pIC50 [1, 14] | pIC50 ([2]; Homo sapiens, HL-60, 72 h) | pIC50 ([3]; Homo sapiens, NCI-H69, 72 h) | pIC50 ([5]; Homo sapiens, HCT-116, 72 h) | pIC50 ([6]; Homo sapiens, 72 h) | pIC50 ([7]; Homo sapiens) | pIC50 ([8]; Homo sapiens, HepG2, 72 h) | pIC50 ([9]; Homo sapiens) | pIC50 [11] | pIC50 ([12]; Homo sapiens) | pIC50 ([13]; Homo sapiens, BXPC-3, 72 h) | pIC50 ([13]; BxPC-3, 72 hr) | pIC50 ([3]; NCI-H69, 72 hr) | pIC50 ([4]; Homo sapiens, A498, 72 h) | pIC50 ([10]; Homo sapiens, CFPAC-1, 72 h) | pIC50 ([1]; MiaPACA-2, 72 hr) | pIC50 ([5]; HCT-116, 72 hr) | pIC50 ([8]; HepG2, 72 hr) | pIC50 ([10]; CFPAC-1, 72 hr) | pIC50 ([4]; A498, 72 hr) | other results |
| --- | --- | --- | --- | --- | --- | --- | --- | --- | --- | --- | --- | --- | --- | --- | --- | --- | --- | --- | --- | --- | --- |
| CC(C)OC(=O)[C@H](C)NP(=O)(OC[C@H]1S[C@@H](n2ccc(N)nc2=O)[C@@H](O)[C@@H]1O)Oc1ccccc1 (single isomer, unassigned) [Compound 101b (diastereoisomer 1)] |  |  |  |  |  |  |  | 4.00 to 5.00 | 4.00 to 5.00 | 4.00 to 5.00 |  | 4.00 to 5.00 |  |  |  | 4.00 to 5.00 | 4.00 to 5.00 | 4.00 to 5.00 | 4.00 to 5.00 |  | pIC50 ([2]; HL-60, 72 hr): 5.00 to 6.00; pIC50 ([3]; Homo sapiens, NCI-H69, 72 hr): 4.00 to 5.00; pIC50 ([4]; Homo sapiens, A498, 72 hr): 4.00 to 5.00; pIC50 [6]: > 6.00; pIC50 [7]: 4.00 to 5.00 |
| CC(C)OC(=O)[C@H](C)NP(=O)(OC[C@H]1S[C@@H](n2ccc(N)nc2=O)[C@@H](O)[C@@H]1O)Oc1ccccc1 (single isomer, unassigned) [Compound 101b (diastereoisomer 2)] |  |  |  |  |  | 4.00 to 5.00 |  |  | 5.00 to 6.00 |  |  |  | 4.00 to 5.00 |  |  | 5.00 to 6.00 | 5.00 to 6.00 | 5.00 to 6.00 |  | 4.00 to 5.00 | pIC50 ([2]; Homo sapiens, HL-60, 72 hr): 5.00 to 6.00; pIC50 ([6]; Homo sapiens): > 6.00; pIC50 [9]: 4.00 to 5.00; pIC50 ([10]; Homo sapiens, CFPAC-1, 72 hr): 4.00 to 5.00; pIC50 [12]: 4.00 to 5.00; pIC50 ([13]; Homo sapiens, BxPC-3, 72 hr): 4.00 to 5.00 |
